Data published in patent US6403637B1, “Methods of modulating matrix metalloproteinase activity and uses thereof” (priority 1999, dated 2002).

Legend:
UMR 106-01 cells [1] = assay: Competition for 125I collagenase-3 binding in UMR 106-01 cells; parameters: species or system rat; conditions: for competition efficiency compared to full-length collagenase-3: 125I mouse collagenase-3; for percent of mouse collagenase-3 binding, UMR-106-01: competitor at 200-, 400- and 800-fold excess over 125I mouse collagenase-3, ± S.E.M., seven pooled experiments; for competition for 125I mouse collagenase-3 binding (in words): compared to full-length MMP-13
Protocol: (§1) For all binding experiments, cells were seeded into 2.0 cm^2 wells. After the cells reached approximately 95% confluence, the medium was replaced with fresh medium containing 1 mg/ml BSA and the cells were assayed for binding 4 h later. The cells were first washed with maintenance medium, then incubated in the same medium with 0.01% Tween 80 containing ^125I-rat collagenase-3 or other iodinated ligands at 4° C. for 2 h. Non-specific binding was assessed by adding a 50-100-fold excess of cold ligand to half the wells, while an equivalent volume of buffer was added to the remaining wells. After incubation, the wells were washed three times with ice-cold MEM (0.5 ml). The cells were then lysed with 500 μl of 1 M NaOH and the lysates were counted on a gamma counter. Protein labeling with ^125I was done using the chloramine T method (Greenwood et al., 1963, Biochem. J. 89:114). The proteins had specific activities ranging from 9 to 27 μCi/μg.
(§2) These proteins were used as competitors in a series of binding assays in UMR cells using ^125I mouse collagenase-3. Radioactive labeling and binding assays were performed as in Example 1.

[2] = system: MEF-1 mouse embryo fibroblasts; assay: Competition for 125I collagenase-3 binding in MEF-1 cells; conditions: competitor at 200-, 400- and 800-fold excess over 125I mouse collagenase-3; ± S.E.M., triplicate wells
Protocol: as §1
(§3) In order to exclude the possibility that the collagenase-3 receptor is the low density lipoprotein receptor-related protein, two cell lines of mouse embryo fibroblasts were used: wild-type (MEF-1) and low density lipoprotein receptor-related protein-null (MEF-2) (both provided by Dr. Joachim Herz). These cells were cultured in Dulbecco's MEM with 10% FBS, 10 units penicillin/ml, 10 μg streptomycin/ml.
as §2
(§4) This region thus appears to be the high-affinity binding domain recognized by the collagenase-3 receptor, and the other two domains (SEQ ID's NO:1 and 3) may be recognized by the lower-affinity low density lipoprotein receptor-related protein or may alternatively stabilize the interaction with the collagenase-3 receptor. To investigate the contribution of each receptor, two mouse embryo fibroblast (MEF) cell lines were utilized. The MEF-1 cell line is known to express both the collagenase-3 receptor and the low density lipoprotein receptor-related protein, while the MEF-2 cell line has been rendered low density lipoprotein receptor-related protein-null. […] This hypothesis is confirmed by the data on Table 4.

[3] = system: UMR 106-01 rat osteosarcoma cells; assay: Binding of 125I-labeled proteinases to UMR 106-01 cells; conditions: for binding to UMR cells (in words): 125I-labeled protein, direct binding; for Specific binding: 125I-labeled ligand 8 nM, means ± SEM for triplicate wells
[4] = system: MEF-2 (LRP null) mouse embryo fibroblasts; assay: Competition for 125I collagenase-3 binding in MEF-2 (LRP null) cells; conditions: for percent of mouse collagenase-3 binding, MEF-2 (LRP null): competitor at 200-, 400- and 800-fold excess over 125I mouse collagenase-3, ± S.E.M., triplicate wells; for competition for receptor binding in MEF-2 cells (in words): compared to MEF-1 cells
Protocol: as §1, §3, §2, §4

UMR 106-01 cells [5] = assay: Internalization assay in UMR 106-01 cells; assay type: cell-based, rat
Protocol: Although the low density lipoprotein receptor-related protein is not required for rat collagenase-3 binding to the cell, it might be required for ligand internalization. Therefore, internalization assays were performed with ^125I-rat collagenase-3 using MEF-1 and MEF-2 cells as follows. After binding 125I-rat labeled proteins as above, the cells were washed three times with cold modified Eagle's media (0.5 ml) to remove unbound ligand. The cells were then warmed to 37° C. by the addition of prewarmed modified Eagle's media (0.25 ml), and incubated at 37° C. for selected intervals. At each time point, the media were collected, and the cells were washed once with ice-cold MEM, then incubated with 0.25% Pronase®-E in modified Eagle's media for 15 min at 4° C. to strip cell surface proteins. The cell suspension was then centrifuged, and the radioactivity associated with cell pellets (defining internalized ^125I-proteins) was measured at each time point.
It is known that RAP inhibits internalization of ligands by the low density lipoprotein receptor-related protein (Kounnas et al., 1996, J. Biol. Chem 271:6523). Therefore, internalization assays were performed using ^125I-labeled rat collagenase-3 as a ligand and receptor-associated protein as a competitor. Human receptor-associated protein from the pGEX-receptor-associated protein expression vector (provided by Dr. Joachim Herz, University of Texas Southwestern Medical Center, Dallas, Tex.) was expressed in bacteria and prepared as described in Herz et al., 1991, J. Biol. Chem. 266:21232.
To investigate the mechanism by which RAP regulates internalization of collagenase-3, an experiment was performed where excess unlabeled RAP or rat collagenase-3 was prebound to UMR 106-01 cells. Binding and internalization of ^125I-labeled rat collagenase-3 and RAP were then allowed to proceed.

collagenase-3 receptor = target: T1, collagenase-3 receptor (Rattus norvegicus, UniProt Q4TU93); assay: Scatchard analysis of 125I-mMMP-13 binding to UMR 106-01 cells, high affinity site
T1 construct: endogenous in cells; host or cells: UMR 106-01 rat osteosarcoma cells
T1 sequence (Q4TU93 31-1480): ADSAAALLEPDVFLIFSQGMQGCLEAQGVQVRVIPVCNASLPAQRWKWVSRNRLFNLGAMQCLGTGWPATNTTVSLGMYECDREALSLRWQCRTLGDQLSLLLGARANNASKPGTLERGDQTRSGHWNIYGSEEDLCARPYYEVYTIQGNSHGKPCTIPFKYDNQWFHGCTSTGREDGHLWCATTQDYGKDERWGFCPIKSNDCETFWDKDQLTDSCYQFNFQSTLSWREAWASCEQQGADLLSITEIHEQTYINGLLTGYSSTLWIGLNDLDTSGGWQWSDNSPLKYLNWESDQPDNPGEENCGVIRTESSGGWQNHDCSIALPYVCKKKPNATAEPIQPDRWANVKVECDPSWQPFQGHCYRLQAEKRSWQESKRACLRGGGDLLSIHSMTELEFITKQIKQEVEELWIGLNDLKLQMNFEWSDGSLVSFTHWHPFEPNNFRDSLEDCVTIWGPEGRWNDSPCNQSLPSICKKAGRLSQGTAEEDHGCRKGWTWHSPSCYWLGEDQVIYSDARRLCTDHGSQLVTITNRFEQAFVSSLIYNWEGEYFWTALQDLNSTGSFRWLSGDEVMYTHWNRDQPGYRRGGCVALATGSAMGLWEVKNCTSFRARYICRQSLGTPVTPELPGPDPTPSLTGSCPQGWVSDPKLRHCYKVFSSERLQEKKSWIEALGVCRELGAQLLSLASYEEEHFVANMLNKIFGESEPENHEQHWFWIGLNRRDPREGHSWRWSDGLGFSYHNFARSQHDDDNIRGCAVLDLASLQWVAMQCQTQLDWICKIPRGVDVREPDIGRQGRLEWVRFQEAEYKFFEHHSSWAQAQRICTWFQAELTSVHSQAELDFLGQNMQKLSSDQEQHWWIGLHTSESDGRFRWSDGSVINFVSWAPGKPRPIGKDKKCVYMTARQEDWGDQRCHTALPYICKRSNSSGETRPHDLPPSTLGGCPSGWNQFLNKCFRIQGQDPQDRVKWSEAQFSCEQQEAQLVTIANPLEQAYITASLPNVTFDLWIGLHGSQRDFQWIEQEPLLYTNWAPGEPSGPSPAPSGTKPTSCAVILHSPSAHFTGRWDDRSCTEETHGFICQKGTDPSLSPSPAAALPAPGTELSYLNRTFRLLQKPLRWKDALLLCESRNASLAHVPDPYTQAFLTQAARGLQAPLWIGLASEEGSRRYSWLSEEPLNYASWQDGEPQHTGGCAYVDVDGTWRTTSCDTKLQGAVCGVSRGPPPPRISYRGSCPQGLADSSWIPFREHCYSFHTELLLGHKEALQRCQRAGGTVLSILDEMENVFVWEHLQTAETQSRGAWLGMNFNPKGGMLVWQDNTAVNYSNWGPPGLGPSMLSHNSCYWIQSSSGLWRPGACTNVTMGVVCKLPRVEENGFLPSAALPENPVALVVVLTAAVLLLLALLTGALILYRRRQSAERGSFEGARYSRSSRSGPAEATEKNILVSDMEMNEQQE
Protocol: as §1
(§5) The recombinant mouse MMP-13 has essentially equivalent catalytic, kinetic, and binding activity as the rat MMP-13 homolog utilized in Example 1.

[6] = target: T2, low density lipoprotein receptor-related protein (Rattus norvegicus, UniProt G3V928); assay: Scatchard analysis of 125I-mMMP-13 binding to UMR 106-01 cells, lower affinity site
T2 construct: endogenous in cells; host or cells: UMR 106-01 rat osteosarcoma cells
T2 sequence (G3V928 20-3944 limits assumed): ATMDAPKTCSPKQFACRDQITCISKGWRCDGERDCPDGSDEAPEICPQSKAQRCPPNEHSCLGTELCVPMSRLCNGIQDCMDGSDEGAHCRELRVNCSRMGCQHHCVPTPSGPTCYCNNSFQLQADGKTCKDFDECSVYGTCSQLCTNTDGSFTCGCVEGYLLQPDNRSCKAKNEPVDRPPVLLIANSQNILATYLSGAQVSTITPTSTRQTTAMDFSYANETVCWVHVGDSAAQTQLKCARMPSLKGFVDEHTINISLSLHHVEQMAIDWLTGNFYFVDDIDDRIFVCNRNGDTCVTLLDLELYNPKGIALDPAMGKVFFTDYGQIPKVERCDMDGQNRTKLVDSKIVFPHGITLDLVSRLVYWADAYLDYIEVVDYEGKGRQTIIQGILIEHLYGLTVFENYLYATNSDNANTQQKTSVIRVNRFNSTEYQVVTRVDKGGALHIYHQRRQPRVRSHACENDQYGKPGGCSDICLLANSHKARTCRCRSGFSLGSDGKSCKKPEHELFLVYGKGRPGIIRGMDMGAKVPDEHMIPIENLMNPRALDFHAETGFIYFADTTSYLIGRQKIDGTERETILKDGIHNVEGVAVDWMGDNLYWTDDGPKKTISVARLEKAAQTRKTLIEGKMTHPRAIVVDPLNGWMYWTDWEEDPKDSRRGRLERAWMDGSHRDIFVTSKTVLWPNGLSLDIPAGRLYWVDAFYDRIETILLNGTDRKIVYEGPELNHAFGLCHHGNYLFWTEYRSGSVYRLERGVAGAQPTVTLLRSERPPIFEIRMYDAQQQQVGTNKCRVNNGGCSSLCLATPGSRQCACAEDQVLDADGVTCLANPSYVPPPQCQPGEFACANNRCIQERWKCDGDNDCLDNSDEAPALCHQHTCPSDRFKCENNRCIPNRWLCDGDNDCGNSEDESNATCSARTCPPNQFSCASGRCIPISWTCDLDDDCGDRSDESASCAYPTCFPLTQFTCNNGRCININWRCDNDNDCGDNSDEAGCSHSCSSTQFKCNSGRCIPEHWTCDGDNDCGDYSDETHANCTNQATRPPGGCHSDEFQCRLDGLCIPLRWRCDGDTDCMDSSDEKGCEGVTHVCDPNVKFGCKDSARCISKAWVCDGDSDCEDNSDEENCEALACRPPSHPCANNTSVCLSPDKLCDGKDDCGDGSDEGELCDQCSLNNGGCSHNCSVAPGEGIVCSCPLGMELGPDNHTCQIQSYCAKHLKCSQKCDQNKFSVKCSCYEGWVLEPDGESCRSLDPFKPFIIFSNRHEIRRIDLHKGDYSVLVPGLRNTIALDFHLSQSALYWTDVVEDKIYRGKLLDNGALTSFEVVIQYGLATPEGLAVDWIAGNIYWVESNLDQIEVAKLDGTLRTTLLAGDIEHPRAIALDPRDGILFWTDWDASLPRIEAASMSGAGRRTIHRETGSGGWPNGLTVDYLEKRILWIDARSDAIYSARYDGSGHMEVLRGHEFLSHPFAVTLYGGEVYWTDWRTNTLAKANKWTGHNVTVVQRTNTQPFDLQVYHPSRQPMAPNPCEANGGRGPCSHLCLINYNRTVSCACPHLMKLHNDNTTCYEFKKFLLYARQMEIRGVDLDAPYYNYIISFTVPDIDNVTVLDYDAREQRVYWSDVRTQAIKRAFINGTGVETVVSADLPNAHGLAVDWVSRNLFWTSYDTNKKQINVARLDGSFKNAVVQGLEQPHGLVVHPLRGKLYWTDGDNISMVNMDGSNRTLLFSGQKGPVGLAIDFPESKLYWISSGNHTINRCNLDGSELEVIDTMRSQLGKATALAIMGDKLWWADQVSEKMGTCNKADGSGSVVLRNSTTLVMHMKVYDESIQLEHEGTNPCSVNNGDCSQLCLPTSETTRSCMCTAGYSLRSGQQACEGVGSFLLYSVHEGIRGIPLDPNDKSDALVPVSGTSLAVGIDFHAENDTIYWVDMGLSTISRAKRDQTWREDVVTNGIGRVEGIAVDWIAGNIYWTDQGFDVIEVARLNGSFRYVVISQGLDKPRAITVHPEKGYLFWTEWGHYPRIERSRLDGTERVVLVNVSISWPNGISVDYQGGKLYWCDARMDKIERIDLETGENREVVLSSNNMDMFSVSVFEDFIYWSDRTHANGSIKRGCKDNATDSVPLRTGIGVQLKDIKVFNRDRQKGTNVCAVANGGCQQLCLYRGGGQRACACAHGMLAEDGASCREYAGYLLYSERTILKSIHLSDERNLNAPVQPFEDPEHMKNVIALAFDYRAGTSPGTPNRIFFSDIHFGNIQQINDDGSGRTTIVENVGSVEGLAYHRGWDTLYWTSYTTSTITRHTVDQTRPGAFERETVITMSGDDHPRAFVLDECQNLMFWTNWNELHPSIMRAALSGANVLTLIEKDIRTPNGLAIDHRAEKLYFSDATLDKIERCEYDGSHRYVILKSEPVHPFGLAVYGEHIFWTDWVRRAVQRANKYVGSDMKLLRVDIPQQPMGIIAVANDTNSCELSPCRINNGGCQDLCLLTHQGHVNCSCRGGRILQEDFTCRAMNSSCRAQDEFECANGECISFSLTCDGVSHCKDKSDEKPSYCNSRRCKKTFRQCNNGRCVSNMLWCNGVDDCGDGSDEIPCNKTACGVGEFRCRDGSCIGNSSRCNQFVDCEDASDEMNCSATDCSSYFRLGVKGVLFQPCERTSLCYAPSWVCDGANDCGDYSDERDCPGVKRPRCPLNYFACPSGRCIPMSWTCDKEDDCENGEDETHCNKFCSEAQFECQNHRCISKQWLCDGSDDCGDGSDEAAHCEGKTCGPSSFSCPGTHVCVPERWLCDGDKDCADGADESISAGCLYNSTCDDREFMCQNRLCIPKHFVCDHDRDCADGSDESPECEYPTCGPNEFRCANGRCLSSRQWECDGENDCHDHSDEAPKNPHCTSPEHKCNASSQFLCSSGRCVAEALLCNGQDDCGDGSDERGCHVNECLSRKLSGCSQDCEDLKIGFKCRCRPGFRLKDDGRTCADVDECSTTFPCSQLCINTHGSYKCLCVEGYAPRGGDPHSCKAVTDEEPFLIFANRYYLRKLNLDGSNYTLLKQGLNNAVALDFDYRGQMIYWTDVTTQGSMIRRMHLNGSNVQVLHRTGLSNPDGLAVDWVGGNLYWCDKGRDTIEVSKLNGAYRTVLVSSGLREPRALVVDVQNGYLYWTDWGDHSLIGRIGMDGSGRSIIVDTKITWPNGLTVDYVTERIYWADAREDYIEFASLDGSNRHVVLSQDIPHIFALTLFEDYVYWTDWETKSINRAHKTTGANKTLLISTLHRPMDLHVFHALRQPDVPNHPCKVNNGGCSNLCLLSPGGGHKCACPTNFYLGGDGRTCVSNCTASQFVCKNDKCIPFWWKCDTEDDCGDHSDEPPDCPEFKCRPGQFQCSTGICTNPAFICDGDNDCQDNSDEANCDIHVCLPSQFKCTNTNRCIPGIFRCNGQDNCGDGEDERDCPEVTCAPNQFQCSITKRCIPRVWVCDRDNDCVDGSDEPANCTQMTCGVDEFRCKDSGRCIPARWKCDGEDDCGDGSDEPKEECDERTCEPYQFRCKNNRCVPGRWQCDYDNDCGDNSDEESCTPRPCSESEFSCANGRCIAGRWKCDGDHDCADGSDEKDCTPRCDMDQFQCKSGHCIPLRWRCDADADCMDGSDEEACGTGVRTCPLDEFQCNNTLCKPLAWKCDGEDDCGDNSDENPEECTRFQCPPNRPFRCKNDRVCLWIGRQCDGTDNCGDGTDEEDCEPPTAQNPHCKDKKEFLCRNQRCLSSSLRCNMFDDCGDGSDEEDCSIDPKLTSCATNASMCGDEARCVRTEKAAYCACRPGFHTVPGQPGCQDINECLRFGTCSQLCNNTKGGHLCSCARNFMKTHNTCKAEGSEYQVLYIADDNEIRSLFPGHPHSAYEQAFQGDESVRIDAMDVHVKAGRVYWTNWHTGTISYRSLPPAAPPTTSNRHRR
T2 sequence (G3V928 3945-4545 partner limits assumed): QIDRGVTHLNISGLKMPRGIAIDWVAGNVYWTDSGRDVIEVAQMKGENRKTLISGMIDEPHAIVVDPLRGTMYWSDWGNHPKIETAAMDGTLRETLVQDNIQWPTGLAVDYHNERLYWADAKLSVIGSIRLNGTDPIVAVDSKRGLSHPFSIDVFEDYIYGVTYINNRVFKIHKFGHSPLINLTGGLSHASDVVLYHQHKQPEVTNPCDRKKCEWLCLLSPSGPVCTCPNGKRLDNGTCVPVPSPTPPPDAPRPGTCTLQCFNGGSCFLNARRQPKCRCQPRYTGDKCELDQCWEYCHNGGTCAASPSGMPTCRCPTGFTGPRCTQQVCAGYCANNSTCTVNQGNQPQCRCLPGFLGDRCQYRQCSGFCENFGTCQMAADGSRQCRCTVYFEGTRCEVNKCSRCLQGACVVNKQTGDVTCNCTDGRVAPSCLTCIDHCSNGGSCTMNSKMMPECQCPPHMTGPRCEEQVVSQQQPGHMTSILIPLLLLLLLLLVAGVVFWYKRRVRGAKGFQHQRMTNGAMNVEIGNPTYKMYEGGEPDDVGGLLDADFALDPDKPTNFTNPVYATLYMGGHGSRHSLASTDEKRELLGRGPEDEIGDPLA
Protocol: as §1, §5

| Substance | competition efficiency compared to full-length collagenase-3 (UMR 106-01 cells [1]) | percent of mouse collagenase-3 binding, UMR-106-01 (UMR 106-01 cells [1]) [%] | percent of mouse collagenase-3 binding, MEF 1 [2] [%] | binding to UMR cells (in words) [3] | percent of mouse collagenase-3 binding, MEF-2 (LRP null) [4] [%] | other results |
| --- | --- | --- | --- | --- | --- | --- |
| H/M (229-472): chimeric collagenase: human MMP-1 N-terminus, mouse MMP-13 residues 229-472 | < 17% | 16.5 ± 5.8 | 2.2 ± 1.1 | – | – | – |
| HM (141-228)/H: chimeric collagenase: mouse MMP-13 residues 141-228 in human MMP-1 | 90% | 89.9 ± 5.3 | 94.3 ± 4.7 | capable of binding specifically to UMR cells | 75.1 ± 13.7 | endocytosis of iodinated construct compared to full-length collagenase-3 (in words) (UMR 106-01 cells [5]): significantly reduced endocytosis |
| HM (166-228)/H: chimeric collagenase: mouse MMP-13 residues 166-228 in human MMP-1 | – | 67.8 ± 3.4 | 80.8 ± 6.0 | – | 97.2 ± 1.7 | competition for 125I mouse collagenase-3 binding (in words) (UMR 106-01 cells [1]): impaired ability to compete for receptor binding |
| HM/M (141-472): chimeric collagenase: human MMP-1 N-terminus, mouse MMP-13 residues 141-472 | – | 95.7 ± 3.9 | 84.4 ± 6.1 | – | – | competition for receptor binding in MEF-2 cells (in words) [4]: significantly impaired ability to compete for receptor binding |
| Human MMP-1: human fibroblast collagenase-1 (interstitial collagenase) | – | 0 | – | – | – | Specific binding [3]: 0.1 ± 1.4 fmol/2.6 × 10^5 cells |
| Human MMP-3: human stromelysin-1 (MMP-3) | – | – | – | – | – | Specific binding [3]: 0.0 ± 0.0 fmol/2.6 × 10^5 cells |
| M (1-228)/H: chimeric collagenase: mouse MMP-13 residues 1-228, remainder human MMP-1 | greater than 90% | 85.3 ± 3.0 | 85.9 ± 10.5 | capable of binding specifically to UMR cells | 41.9 ± 9.7 | competition for receptor binding in MEF-2 cells (in words) [4]: impaired binding in MEF-2 cells; endocytosis of iodinated construct compared to full-length collagenase-3 (in words) (UMR 106-01 cells [5]): significantly reduced endocytosis |
| MMP-13 (1-265): C-terminally truncated mouse collagenase-3 | – | 100 | 100 | – | – | competition for 125I mouse collagenase-3 binding (in words) (UMR 106-01 cells [1]): essentially equivalent manner compared to full-length MMP-13 |
| MMP-13 (1-472): recombinant full-length mouse collagenase-3, residues 1-472 | – | – | – | binds equally as well as the rat enzyme | – | binding to UMR cells (in words) ([3]; listed as mMMP-13): specifically and saturably; Bmax, high affinity site (collagenase-3 receptor; Scatchard analysis): 73.9 pmol/10^5 cells; Bmax, high affinity site (collagenase-3 receptor; computer analysis with the GraphPad InPlot program): 75 pmol/10^5 cells; Bmax, lower affinity site ([6]; Scatchard analysis): 660 pmol/10^5 cells; Bmax, lower affinity site ([6]; computer analysis): 834 pmol/10^5 cells |
